From patent US20200331850A1, “NOVEL SULFONAMIDE CARBOXAMIDE COMPOUNDS” (Inflazome Limited, priority 2017, published 2020) come the findings set out here.

Counter-ions that a name gives are not always drawn.

What is called IC50 is the concentration that gives 50% inhibition.

In this assay the target is NLRP3 (Homo sapiens, UniProt Q96P20). The assay is described as follows: Human whole blood IL1β release assay (LPS + nigericin, AlphaLisa IL-1β). Set-up: Plate out 80 μl of whole blood containing 1βg/ml of LPS in 96-well, clear bottom cell culture plate; from tissue; host or cells: human whole blood from healthy donors, LPS-primed and nigericin-stimulated. As to conditions: NLRP3 inhibitory activity in human whole blood, IL-1β release, 10 μM nigericin, read-out: HWB IC50. It counts as cell-based. Here is the method: For systemic delivery, the ability to inhibit NLRP3 when the compounds are present within the bloodstream is of great importance. For this reason, the NLRP3 inhibitory activity of a number of compounds in human whole blood was investigated in accordance with the following protocol.
Human whole blood in Li-heparin tubes was obtained from healthy donors from a volunteer donor panel. • 1. Plate out 80 μl of whole blood containing 1βg/ml of LPS in 96-well, clear bottom cell culture plate (Corning #3585) • 2. Add 10 μl compound (8 points half-log dilution with 10 μM top dose) or vehicle (DMSO 0.1% FAC) to the appropriate wells • 3. Incubate for 3 hrs at 37° C., 5% CO2 • 4. Add 10 μl Nigericin (Sigma # N7143) (10 μM FAC) to all wells • 5. Incubate for 1 hr at 37° C., 5% CO2 • 6. At the end of the incubation period, spin plates at 300×g for 5 mins to pellet cells and remove 20 μl of supernatant and add to 96-well v-bottom plates for IL-1β analysis (note: these plates containing the supernatants can be stored at −80° C. to be analysed at a later date) • 7. IL-1β was measured according to the manufacturer protocol (Perkin Elmer-AlphaLisa IL-1 Kit AL220F-5000) • 8. IC50 data is fitted to a non-linear regression equation (log inhibitor vs response-variable slope 4-parameters)

NLRP3, sequence (Q96P20 whole entry): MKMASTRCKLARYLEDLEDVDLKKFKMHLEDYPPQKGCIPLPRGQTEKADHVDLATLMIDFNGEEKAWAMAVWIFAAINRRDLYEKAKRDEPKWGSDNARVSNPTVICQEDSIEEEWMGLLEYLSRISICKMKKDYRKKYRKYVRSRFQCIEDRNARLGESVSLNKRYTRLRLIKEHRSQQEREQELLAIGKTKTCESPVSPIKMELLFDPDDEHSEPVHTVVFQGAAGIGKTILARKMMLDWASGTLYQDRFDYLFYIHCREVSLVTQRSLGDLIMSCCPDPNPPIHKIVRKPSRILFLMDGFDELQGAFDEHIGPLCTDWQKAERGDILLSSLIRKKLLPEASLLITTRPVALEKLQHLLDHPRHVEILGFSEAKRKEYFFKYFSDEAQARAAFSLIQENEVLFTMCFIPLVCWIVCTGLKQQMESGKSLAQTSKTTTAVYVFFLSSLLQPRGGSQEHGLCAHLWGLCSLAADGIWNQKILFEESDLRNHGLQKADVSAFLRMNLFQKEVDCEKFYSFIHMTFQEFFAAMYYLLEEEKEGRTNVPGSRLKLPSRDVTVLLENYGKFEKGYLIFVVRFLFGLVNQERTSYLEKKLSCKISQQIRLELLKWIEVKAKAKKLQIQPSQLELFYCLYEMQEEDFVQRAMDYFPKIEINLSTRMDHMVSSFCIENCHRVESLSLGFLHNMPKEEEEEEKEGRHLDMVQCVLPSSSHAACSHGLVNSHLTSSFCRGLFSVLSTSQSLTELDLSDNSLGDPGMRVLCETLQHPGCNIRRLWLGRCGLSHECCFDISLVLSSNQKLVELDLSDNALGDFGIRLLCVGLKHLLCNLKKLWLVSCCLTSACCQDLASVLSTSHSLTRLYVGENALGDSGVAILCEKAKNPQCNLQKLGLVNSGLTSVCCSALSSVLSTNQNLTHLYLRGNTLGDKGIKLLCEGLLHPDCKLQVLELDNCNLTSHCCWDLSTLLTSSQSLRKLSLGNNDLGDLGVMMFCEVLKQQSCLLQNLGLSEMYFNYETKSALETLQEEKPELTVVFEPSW

Consider `CCN1CCC(CS(=O)(=O)NC(=O)Nc2c3c(cc4c2CCC4)CCC3)CC1` [Example 1, 1-(1-Ethylpiperidin-4-yl)-N-((1,2,3,5,6,7-hexahydro-s-indacen-4-yl)carbamoyl)methanesulfonamide, potassium salt], for which the half-inhibitory concentration (IC50) was at most 1000 nM. For `CCN(CCS(=O)(=O)NC(=O)Nc1c2c(cc3c1CCC3)CCC2)Cc1ccccc1` [Example 11, 2-(Benzyl(ethyl)amino)-N-((1,2,3,5,6,7-hexahydro-s-indacen-4-yl)carbamoyl)ethane-1-sulfonamide, potassium salt], the IC50 is at most 7500 nM.

`CCN(CCCCS(=O)(=O)NC(=O)Nc1c2c(cc3c1CCC3)CCC2)Cc1ccccc1` [Example 13, 4-(Benzyl(ethyl)amino)-N-((1,2,3,5,6,7-hexahydro-s-indacen-4-yl)carbamoyl)butane-1-sulfonamide, potassium salt]: the IC50 is at most 5000 nM. Consider `COCCCS(=O)(=O)NC(=O)Nc1c2c(cc3c1CCC3)CCC2` [Example 14, N-((1,2,3,5,6,7-Hexahydro-s-indacen-4-yl)carbamoyl)-3-methoxypropane-1-sulfonamide, Potassium Salt], for which the IC50 is at most 5000 nM. The figure for `O=C(Nc1c2c(cc3c1CCC3)CCC2)NS(=O)(=O)Cc1cccnc1` [Example 20, N-((1,2,3,5,6,7-Hexahydro-s-indacen-4-yl)carbamoyl)-1-(pyridin-3-yl)methanesulfonamide, potassium salt] is at most 5000 nM; for `CN1CCC(CS(=O)(=O)NC(=O)Nc2c3c(cc4c2CCC4)CCC3)C1` (stereo not shown) [Example 23, N-((1,2,3,5,6,7-Hexahydro-s-indacen-4-yl)carbamoyl)-1-(1-methylpyrrolidin-3-yl)methanesulfonamide, Potassium Salt] it is at most 1000 nM; for `CCN(C)CCCS(=O)(=O)NC(=O)Nc1c2c(cc3c1CCC3)CCC2` [Example 27, 3-(Ethyl(methyl)amino)-N-((1,2,3,5,6,7-hexahydro-s-indacen-4-yl)carbamoyl)propane-1-sulfonamide, potassium salt] it is at most 1000 nM. With `O=C(Nc1c2c(cc3c1CCC3)CCC2)NS(=O)(=O)CCN1CCCCC1` [Example 28, N-((1,2,3,5,6,7-Hexahydro-s-indacen-4-yl)carbamoyl)-2-(piperidin-1-yl)ethane-1-sulfonamide, Potassium Salt], the half-inhibitory concentration (IC50) was at most 1000 nM. In the case of `Cn1cc(CS(=O)(=O)NC(=O)Nc2c3c(cc4c2CCC4)CCC3)cn1` [Example 35, N-((1,2,3,5,6,7-hexahydro-s-indacen-4-yl)carbamoyl)-1-(1-methyl-1H-pyrazol-4-yl)methanesulfonamide], the IC50 was at most 5000 nM. The figure for `CC(CN(C)C)CS(=O)(=O)NC(=O)Nc1c2c(cc3c1CCC3)CCC2` (stereo not shown) [Example 36, 3-(Dimethylamino)-N-((1,2,3,5,6,7-hexahydro-s-indacen-4-yl)carbamoyl)-2-methylpropane-1-sulfonamide, potassium salt] is at most 1000 nM; for `CCN(CC)CCCS(=O)(=O)NC(=O)Nc1c(-c2ccncc2)cc(F)c2c1CCC2` [Example 44, 3-(Diethylamino)-N-((7-fluoro-5-(pyridin-4-yl)-2,3-dihydro-1H-inden-4-yl)carbamoyl)propane-1-sulfonamide] it is at most 1000 nM. For `CC(=O)N(C)CCCS(=O)(=O)NC(=O)Nc1c2c(cc3c1CCC3)CCC2` [Example 53, N-(3-(N-((1,2,3,5,6,7-Hexahydro-s-indacen-4-yl)carbamoyl)sulfamoyl)propyl)-N-methylacetamide, Potassium Salt], the IC50 was at most 1000 nM. The figure for `COc1cc(-c2cc(F)cc(C(C)C)c2NC(=O)NS(=O)(=O)CC2CCN(C)C2)ccn1` (stereo not shown) [Example 58, N-((4-Fluoro-2-isopropyl-6-(2-methoxypyridin-4-yl)phenyl)carbamoyl)-1-(1-methylpyrrolidin-3-yl)methanesulfonamide] is at most 1000 nM.

As to `COc1cc(-c2ccc3c(c2NC(=O)NS(=O)(=O)CC2CCN(C)C2)CCC3)ccn1` (stereo not shown) [Example 59, N-((5-(2-Methoxypyridin-4-yl)-2,3-dihydro-1H-inden-4-yl)carbamoyl)-1-(1-methylpyrrolidin-3-yl)methanesulfonamide], the IC50 was at most 1000 nM. With `COc1cc(-c2ccc3c(c2NC(=O)NS(=O)(=O)CCOC(C)C)CCO3)ccn1` [Example 62, 2-Isopropoxy-N-((5-(2-methoxypyridin-4-yl)-2,3-dihydro-benzofuran-4-yl)carbamoyl)ethanesulfonamide, sodium salt], the IC50 was at most 1000 nM. The figure for `CN(CCCS(=O)(=O)NC(=O)Nc1c2c(cc3c1CCC3)CCC2)Cc1ccccc1` [Example 67, 3-(Benzyl(methyl)amino)-N-((1,2,3,5,6,7-hexahydro-s-indacen-4-yl)carbamoyl)propane-1-sulfonamide, potassium salt] is at most 10000 nM; for `CON(C)CCCS(=O)(=O)NC(=O)Nc1c2c(cc3c1CCC3)CCC2` [Example 70, N-((1,2,3,5,6,7-Hexahydro-s-indacen-4-yl)carbamoyl)-3-(methoxy(methyl)amino)propane-1-sulfonamide, Potassium Salt] it is at most 5000 nM; for `CC1(C)C2CC[C@@]1(CS(=O)(=O)NC(=O)Nc1c3c(cc4c1CCC4)CCC3)/C(=N/O)C2` [Example 71, N-((1,2,3,5,6,7-Hexahydro-s-indacen-4-yl)carbamoyl)-1-((1S,E)-2-(hydroxyimino)-7,7-dimethylbicyclo[2.2.1]heptan-1-yl)methane sulfonamide, Potassium Salt] it is at most 10000 nM. The figure for `O=C(Nc1c2c(cc3c1CCC3)CCC2)NS(=O)(=O)CCCN1CCC1` [Example 72, 3-(Azetidin-1-yl)-N-((1,2,3,5,6,7-hexahydro-s-indacen-4-yl)carbamoyl)propane-1-sulfonamide, Potassium Salt] is at most 1000 nM; for `C#CCN(C)CCCS(=O)(=O)NC(=O)Nc1c2c(cc3c1CCC3)CCC2` [Example 73] it is at most 5000 nM. In the case of `CN1CCOC(CS(=O)(=O)NC(=O)Nc2c3c(cc4c2CCC4)CCC3)C1` (stereo not shown) [Example 74, N-((1,2,3,5,6,7-Hexahydro-s-indacen-4-yl)carbamoyl)-1-(4-methylmorpholin-2-yl)methanesulfonamide, Potassium Salt], the IC50 is at most 5000 nM. The figure for `CC(CCS(=O)(=O)NC(=O)Nc1c2c(cc3c1CCC3)CCC2)N(C)C` (stereo not shown) [Example 78, 3-(Dimethylamino)-N-((1,2,3,5,6,7-hexahydro-s-indacen-4-yl)carbamoyl)butane-1-sulfonamide, potassium salt] is at most 1000 nM; for `CN1CC2(COC(CS(=O)(=O)NC(=O)Nc3c4c(cc5c3CCC5)CCC4)C2)C1` (stereo not shown) [Example 80, N-((1,2,3,5,6,7-Hexahydro-s-indacen-4-yl)carbamoyl)-1-(2-methyl-6-oxa-2-azaspiro[3.4]octan-7-yl)methanesulfonamide] it is at most 5000 nM; for `CN(C)CC(C)(C)CS(=O)(=O)NC(=O)Nc1c2c(cc3c1CCC3)CCC2` [Example 81, 3-(Dimethylamino)-N-((1,2,3,5,6,7-hexahydro-s-indacen-4-yl)carbamoyl)-2,2-dimethylpropane-1-sulfonamide] it is at most 5000 nM. In the case of `CN1CCCC(CS(=O)(=O)NC(=O)Nc2c3c(cc4c2CCC4)CCC3)C1` (stereo not shown) [Example 83, N-((1,2,3,5,6,7-Hexahydro-s-indacen-4-yl)carbamoyl)-1-(1-methylpiperidin-3-yl)methanesulfonamide], the IC50 is at most 1000 nM. Regarding `CCN1CCCC(CS(=O)(=O)NC(=O)Nc2c3c(cc4c2CCC4)CCC3)C1` (stereo not shown) [Example 84, 1-(1-Ethylpiperidin-3-yl)-N-((1,2,3,5,6,7-hexahydro-s-indacen-4-yl)carbamoyl)methanesulfonamide], the IC50 is at most 1000 nM. The figure for `CC1CCN1CCS(=O)(=O)NC(=O)Nc1c2c(cc3c1CCC3)CCC2` (stereo not shown) [Example 89, N-((1,2,3,5,6,7-Hexahydro-s-indacen-4-yl)carbamoyl)-2-(2-methylazetidin-1-yl)ethane-1-sulfonamide] is at most 1000 nM. The figure for `O=C(Nc1c2c(cc3c1CCC3)CCC2)NS(=O)(=O)CCN1CC(F)C1` [Example 90, 2-(3-Fluoroazetidin-1-yl)-N-((1,2,3,5,6,7-hexahydro-s-indacen-4-yl)carbamoyl)ethane-1-sulfonamide] is at most 5000 nM.

As for `CC(CS(=O)(=O)NC(=O)Nc1c2c(cc3c1CCC3)CCC2)N1CCC1` (stereo not shown) [Example 91, 2-(Azetidin-1-yl)-N-((1,2,3,5,6,7-hexahydro-s-indacen-4-yl)carbamoyl)propane-1-sulfonamide], the concentration for half-maximal inhibition (IC50) is at most 1000 nM.

On to `COC(=O)CCS(=O)(=O)NC(=O)Nc1c2c(cc3c1CCC3)CCC2` [Example 92, Methyl 3-(N-((1,2,3,5,6,7-hexahydro-s-indacen-4-yl)carbamoyl)sulfamoyl)propanoate], for which the IC50 is at most 7500 nM.

On to `CC(C)N1CCCC(CS(=O)(=O)NC(=O)Nc2c3c(cc4c2CCC4)CCC3)C1` (stereo not shown) [Example 93, N-((1,2,3,5,6,7-Hexahydro-s-indacen-4-yl)carbamoyl)-1-(1-isopropylpiperidin-3-yl)methanesulfonamide], for which the IC50 is at most 1000 nM.
